pIC50: −log10 of the molar value. Values joined by “and” are separate entries in the source; they are usually repeats but may differ in a detail not shown here. Equal values may be shown once. Read-outs that look alike come from different tables or passages of the source.

The subject of this assay is chloroquine-resistant K1 strain of P. falciparum. The assay can be described thus: 48-h sensitivity assay, [3H]-hypoxanthine incorporation as an assessment of parasite growth. In kind it is cell-based. As to the method:
The antimalarial activity of the new dimers was tested against the chloroquine-resistant K1 strain of P. falciparum. A single uncloned K1, chloroquine resistant strain of P. falciparum from Thailand was used. Parasites were maintained in continuous culture using the method of Trager and Jenson. (J. Parasitol, 1977, 63, […]). Cultures were grown in flasks containing human erythrocytes (2-5%) with parasitemia in the range of 1% to 10% suspended in RPMI 1640 medium supplemented with 25 mM HEPES and 32 mM NaHCO3, and 10% human serum (complete medium). Cultures were gassed with a mixture of 3% O2, 4% CO2 and 93% N2.
Antimalarial activity was assessed with an adaption of the 48-h sensitivity assay of Desjardins et al. (Antimicrob. Agents. Chemother., 1979, 16, 710-718) using [^3H]-hypoxanthine incorporation as an assessment of parasite growth. Stock drug solutions were prepared in 100% dimethylsulphoxide (DMSO) and diluted to the appropriate concentration using complete medium. Assays were performed in sterile 96-well microtitre plates, each plate containing 200 μl of parasite culture (2% parasitemia, 0.5% haematocrit) with or without 10 μl drug dilutions. Each drag was tested in triplicate and parasite growth was compared to control wells (which constituted 100% parasite growth). After 24-h incubation at 37° C., 0.5 μCi hypoxanthine was added to each well. Cultures were incubated for a further 24 h before they were harvested onto filter-mats, dried for 1 h at 55° C. and counted using a Wallac 1450 Microbeta Trilux Liquid scintillation and luminescence counter. IC50 values were calculated by interpolation of the probit transformation of the log dose—response curve.

Setting [1] is: Plasmodium falciparum, K1, 48 h, mean of the determinations, K1 strain, 48 h, read-out: Mean IC50.
Where [2] appears, read: mean of the determinations, K1 strain, 48 h, read-out: Mean IC50.
The mark [3] stands for this setting: single determinations (triplicate), K1 strain, 48 h, read-out: IC50.

Turning to `C[C@@H]1CC[C@H]2[C@@H](C)C(=O)O[C@@H]3O[C@@]4(C)CC[C@@H]1[C@]32OO4` [Artemisinin, reference compound], the negative logarithm of the IC50 (pIC50) was 7.91 under setting [1] and 7.91 (Plasmodium falciparum, K1, 48 h, single determinations (triplicate), K1 strain, 48 h, read-out: IC50).
With `C[C@H]1[C@@H](CCOCc2cccc(COCC[C@H]3O[C@@H]4O[C@]5(C)CC[C@H]6[C@H](C)CC[C@@H]([C@H]3C)[C@@]46OO5)c2)O[C@@H]2O[C@]3(C)CC[C@H]4[C@H](C)CC[C@@H]1[C@@]24OO3` [PV43], the pIC50 under setting [2] is 8.54.
As to `CCN(CC)CCCC(C)Nc1ccnc2cc(Cl)ccc12` (stereo not shown) [Chloroquine, chloroquine, reference compound], the negative logarithm of the IC50 (pIC50) (Plasmodium falciparum, K1, 48 h) is 6.72 and the negative-log IC50 (pIC50) (Plasmodium falciparum, K1, 48 h, read-out: Mean IC50) was 6.72.
For the molecule `CC1CCC2C(C)C(CCOC(=O)CCCC(=O)OCCC3OC4OC5(C)CCC6C(C)CCC(C3C)C46OO5)OC3OC4(C)CCC1C32OO4` (stereo not shown) [PV35], the negative-log IC50 (pIC50) runs as follows: under setting [2], 8.62; under setting [3], 8.59 and 8.51 and 8.80.
In the case of `C[C@H]1[C@@H](CCOC(=O)c2ccc(C(=O)OCC[C@H]3O[C@@H]4O[C@]5(C)CC[C@H]6[C@H](C)CC[C@@H]([C@H]3C)[C@@]46OO5)cc2)O[C@@H]2O[C@]3(C)CC[C@H]4[C@H](C)CC[C@@H]1[C@@]24OO3` [PV32, 10-β-(2-Hydroxyethyl)-deoxoartemisinin bis-ester(1,4)-dimer], the pIC50 is 8.34 under setting [2]; 8.26 and 8.28 and 8.52 under setting [3].
Regarding “10β-(2-Hydroxyethyl)-deoxoartemisinin bis-ester (1,2)-dimer [PV30]”, under setting [2], the negative-log IC50 (pIC50) is 8.59.
For the molecule `CO[C@H]1O[C@@H]2O[C@@]3(C)CC[C@H]4[C@H](C)CC[C@@H]([C@H]1C)[C@@]24OO3` [Artemether, artemether, reference compound], the negative logarithm of the IC50 (pIC50) is, setting by setting: under setting [1], 8.55; under setting [3], 8.70.
`C[C@H]1[C@@H](CCOC(=O)c2cccc(C(=O)OCC[C@H]3O[C@@H]4O[C@]5(C)CC[C@H]6[C@H](C)CC[C@@H]([C@H]3C)[C@@]46OO5)c2)O[C@@H]2O[C@]3(C)CC[C@H]4[C@H](C)CC[C@@H]1[C@@]24OO3` [PV31, 10β-(2-hydroxyethyl)-deoxoartemisininbis-ester(1,3)-dimer]: the negative-log IC50 (pIC50) was 7.37 under setting [2]; 7.40 and 7.36 under setting [3].
For `CC1CCC2C(C)C(CCOP(=O)(OCCC3OC4OC5(C)CCC6C(C)CCC(C3C)C46OO5)Oc3ccccc3)OC3OC4(C)CCC1C32OO4` (stereo not shown) [PV37], the pIC50 under setting [2] was 9.30.
On the same count and under the same terms, the same measure for `C[C@H]1[C@@H](CCOCc2ccccc2COCC[C@H]2O[C@@H]3O[C@]4(C)CC[C@H]5[C@H](C)CC[C@@H]([C@H]2C)[C@@]35OO4)O[C@@H]2O[C@]3(C)CC[C@H]4[C@H](C)CC[C@@H]1[C@@]24OO3` [PV45]: 8.57.
In the case of `C[C@H]1[C@@H](CCOCc2ccc(COCC[C@H]3O[C@@H]4O[C@]5(C)CC[C@H]6[C@H](C)CC[C@@H]([C@H]3C)[C@@]46OO5)cc2)O[C@@H]2O[C@]3(C)CC[C@H]4[C@H](C)CC[C@@H]1[C@@]24OO3` [PV41], the pIC50 by setting is: under setting [2], 8.62; under setting [3], 8.59 and 8.51 and 8.80.
For `C[C@H]1[C@@H](CCOC(=O)CCC(=O)OCC[C@H]2O[C@@H]3O[C@]4(C)CC[C@H]5[C@H](C)CC[C@@H]([C@H]2C)[C@@]35OO4)O[C@@H]2O[C@]3(C)CC[C@H]4[C@H](C)CC[C@@H]1[C@@]24OO3` [PV33], under setting [2], the pIC50 is 8.74.

(Values after patent US20050070595A1, “Trioxane derivatives as antimalaria or anticancer compounds” (priority 2001, published 2005).)
